Results taken from patent US20240415819A1, “MACROCYCLIC COMPOUNDS AS PROTEASOME SUBUNIT BETA TYPE-5 INHIBITORS” (Lead Discovery Center GmbH, priority 2021, published 2024).
Like-named read-outs stand apart in the source and are kept apart here.

Legend:
[1] = target: T1, β5 subunit of the human immunoproteasome (IPS) (Homo sapiens, UniProt P28062); assay: β5 inhibition assay, human immunoproteasome (Suc-LLVY-AMC); type: biochemical; settings: IC50 class, Suc-LLVY-AMC substrate
T1 construct: purchased Boston Biochem E-370
Summary of the method: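 β5 activity is read as liberated AMC fluorescence (355/460 nm) after 4 h dark reaction at RT with 22.6 μM Suc-LLVY-AMC, stopped by 1 μM bortezomib. Beforehand, 1 nM human IPS and compound sat 10 min at RT in HEPES pH 7.5 buffer containing NaCl, 0.02% SDS and DTT.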

[2] = tested on: A549 (human lung carcinoma cell line); assay: Glo assay of A549 cells (Table 3; ProteasomeGlo plating scheme); type: cell-based; settings: Homo sapiens
Summary of the method: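 Compound treatment lasts 105 minutes at 37° C. under 5% CO2. Suc-LLVY-Glo substrate premixed with detection reagent (60 min at room temperature) is then added directly to the cells, and luminescence after 10-15 min in the dark gives the IC50 in nM.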

[3] = A549 cells, read-out: PGLo A549

Row | IC50 [1] [nM] | IC50 [2, 3] [nM] | SMILES | IC50 ([2]; A549, read-out: PGLo A549 [nM]) [nM]
1 | < 100 | 1000 to 5000 | Cc1ccc2cc1CNC(=O)[C@H](CCc1ccccc1)NC(=O)[C@H](NC(=O)OCc1ccccc1)CC(=O)N1CCC[C@H](CCO2)C1 [Compound 291, benzyl ((13R,9S,12R)-5^4-methyl-8,11,14-trioxo-9-phenethyl-4-oxa-7,10-diaza-1(3,1)-piperidina-5(1,3)-benzenacyclotetradecaphane-12-yl)carbamate] | 
2 | < 100 | < 100 | CC(=O)N[C@H]1CC(=O)N2CCCC(CCOc3ccc(C)c(c3)CNC(=O)C(c3cnn(Cc4ccccc4)c3)NC1=O)C2 (stereo partly drawn) [Compound 565, N-((12S)-9-(1-benzyl-1H-pyrazol-4-yl)-5^4-methyl-8,11,14-trioxo-4-oxa-7,10-diaza-1(3,1)-piperidina-5(1,3)-benzenacyclotetradecaphane-12-yl)acetamide] | 
3 | < 100 | < 100 | CCC(C(=O)N[C@H]1CC(=O)N2CCCC(CCOc3ccc(C)c(c3)CNC(=O)[C@H](CCc3ccccc3)NC1=O)C2)c1ccc(OC)c(OC)c1 (stereo partly drawn) [Compound 64, 2-(3,4-dimethoxyphenyl)-N-((9S,12S)-5^4-methyl-8,11,14-trioxo-9-phenethyl-4-oxa-7,10-diaza-1(3,1)-piperidina-5(1,3)-benzenacyclotetradecaphane-12-yl)butanamide] | 
4 | < 100 | < 100 | Cc1ccc2cc1CNC(=O)[C@H](CCc1ccccc1)NC(=O)[C@@H](NC(=O)OCc1ccccc1)CC(=O)N1CCC[C@H](CCO2)C1 [Compound 292, benzyl ((13R,9S,12S)-5^4-methyl-8,11,14-trioxo-9-phenethyl-4-oxa-7,10-diaza-1(3,1)-piperidina-5(1,3)-benzenacyclotetradecaphane-12-yl)carbamate] | 

Row | SMILES | IC50 [1] [nM] | IC50 [2, 3] [nM] | IC50 ([2]; A549, read-out: PGLo A549 [nM]) [nM]
5 | Cc1ccc2cc1CNC(=O)[C@H](CCc1ccccc1)NC(=O)[C@@H](NC(=O)OCC1(C)COC1)CC(=O)N1CCCC(CCO2)C1 (stereo partly drawn) [Compound 293, (3-methyloxetan-3-yl)methyl ((9S,12S)-5^4-methyl-8,11,14-trioxo-9-phenethyl-4-oxa-7,10-diaza-1(3,1)-piperidina-5(1,3)-benzenacyclotetradecaphane-12-yl)carbamate] | < 100 |  | < 100
